TGI data for 16 compounds are collected here from PubChem BioAssay (NCI).

Test systems include OVCAR-5 ovarian; HCT-15 colon; HOP-62 NSCLC; MOLT-4 leukemia; T-47D breast; TK-10 renal; K-562 leukemia; HCT-116 colon; CAKI-1 renal; HL-60(TB) leukemia.
Holding throughout (assay): NCI tumour cell line growth inhibition, 48 h

SMILES strings stand for the structures.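 All cell lines were grown in 96-well plates and treated with compound for 48 hours. TGI denotes the concentration required for complete inhibition of growth.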

With `CCOC(=O)CN=C1Nc2ccccc2C(=O)N2CSCC12` (centres undefined), the TGI in the assay on OVCAR-5 ovarian, in the assay with HCT-15 colon, in the assay on HOP-62 NSCLC, in the assay on MOLT-4 leukemia, in the assay on T-47D breast and with TK-10 renal was over 100 µM each time. Moreover, the TGI in the assay on K-562 leukemia, in the assay with HCT-116 colon and with CAKI-1 renal was over 100 µM in each case.
For the compound `CC1=NC2(CCCCC2)N(Cl)C(=O)C1SC#N` (centres undefined), the TGI in the assay with OVCAR-5 ovarian was 38.6 µM; in the assay with HCT-15 colon, 66.6 µM; in the assay on HOP-62 NSCLC, 47.8 µM; in the assay with MOLT-4 leukemia, 23.7 µM; in the assay on HL-60(TB) leukemia, over 100 µM; in the assay with T-47D breast it was 62.7 µM. The TGI came to 35.1 µM in the assay on TK-10 renal and 41.4 µM in the assay with K-562 leukemia.
Take `CC1(C)CC(=O)C2=C(C1)NC(SCC(=O)O)=C(C#N)C2c1ccc(Br)cc1` (centres undefined): the TGI in the assay with OVCAR-5 ovarian, in the assay on HCT-15 colon, with HOP-62 NSCLC, in the assay on HL-60(TB) leukemia, with TK-10 renal and in the assay with HCT-116 colon was over 100 µM in each case. For the same compound, the TGI with CAKI-1 renal is over 100 µM.
Turning to `NNC(=Nc1ccccc1)SCc1ccccc1`, the TGI with OVCAR-5 ovarian, with HCT-15 colon, in the assay with HOP-62 NSCLC, in the assay with MOLT-4 leukemia, with HL-60(TB) leukemia and with K-562 leukemia was over 100 µM throughout. For the same compound, the TGI in the assay with HCT-116 colon and in the assay with CAKI-1 renal was over 100 µM in each case.
`[N-]=[N+]=NC1=NNC2(C(=O)N1)c1ccccc1-c1ccccc12`: the TGI in the assay with OVCAR-5 ovarian, in the assay with HCT-15 colon, in the assay on HOP-62 NSCLC, with HL-60(TB) leukemia, with TK-10 renal and in the assay on K-562 leukemia was over 100 µM throughout. Further, the TGI with HCT-116 colon was 27.4 µM; with CAKI-1 renal it was over 100 µM.
`Cc1c(NC(=S)N/N=C\C(=N/NC(=S)Nc2c(C)n(C)n(-c3ccccc3)c2=O)c2ccccc2)c(=O)n(-c2ccccc2)n1C`: the TGI in the assay with OVCAR-5 ovarian, in the assay with HCT-15 colon, with HOP-62 NSCLC, in the assay with MOLT-4 leukemia, in the assay with T-47D breast and with TK-10 renal was over 100 µM each time. Besides, the TGI in the assay with HCT-116 colon and in the assay with CAKI-1 renal was over 100 µM each time.
`Nc1nc2cc(CNc3ccc(C(=O)O)cc3)ccc2nc1-c1ccccc1`: the TGI in the assay with OVCAR-5 ovarian, in the assay on HCT-15 colon, with HOP-62 NSCLC, in the assay with MOLT-4 leukemia, with HL-60(TB) leukemia and in the assay with T-47D breast was over 100 µM in each case. For the same compound, the TGI with TK-10 renal, in the assay with K-562 leukemia and in the assay on HCT-116 colon was over 100 µM in each case.
As for `O=C1C=C(N2CCCC2)C(=O)c2c(O)ccc(O)c21`, the TGI in the assay with OVCAR-5 ovarian, in the assay with HCT-15 colon, with HOP-62 NSCLC, in the assay with MOLT-4 leukemia, in the assay on HL-60(TB) leukemia and in the assay on T-47D breast was over 10 µM in each case. Besides, the TGI in the assay with TK-10 renal and in the assay on K-562 leukemia was over 10 µM each time.
For `c1nncn1C12C3C4C5C3C1C5C42` (centres undefined), the TGI in the assay with OVCAR-5 ovarian, in the assay with HCT-15 colon, in the assay on HOP-62 NSCLC, in the assay with MOLT-4 leukemia, with HL-60(TB) leukemia and in the assay on T-47D breast was over 100 µM throughout. Besides, the TGI in the assay with TK-10 renal, in the assay with K-562 leukemia and in the assay on HCT-116 colon was over 100 µM throughout.
For the compound `CCn1nc(-c2ccccc2)c2c1N(C)c1ccccc1-n1c(-c3ccccc3)nnc1-2`, the TGI in the assay on OVCAR-5 ovarian was 33.5 µM; in the assay with HCT-15 colon, 23.4 µM; with HOP-62 NSCLC, 32.2 µM; in the assay on T-47D breast, 46.9 µM; in the assay on TK-10 renal, 31.1 µM; in the assay on K-562 leukemia, over 100 µM. Besides, in the assay with HCT-116 colon, the TGI was 26.3 µM.
In the case of `CC(=O)Nc1ccc(N2C(=O)CS(=O)(=O)C2c2cccc(Oc3ccccc3)c2)cc1` (centres undefined), the TGI in the assay with OVCAR-5 ovarian was 37.2 µM; with HCT-15 colon, 39.5 µM; in the assay on HOP-62 NSCLC, 38.9 µM; in the assay with MOLT-4 leukemia, 62.9 µM; in the assay on HL-60(TB) leukemia it was 84.8 µM; in the assay with T-47D breast, 58.3 µM. Besides, the figures for the TGI in the assay with TK-10 renal, in the assay on K-562 leukemia and in the assay with HCT-116 colon were 41.7 µM, 55 µM and 35.2 µM, respectively.
Consider `CCN(CC)c1ccc(/C=c2\nc(-c3ccccc3)n3c2nc2ccccc23)cc1`, for which the TGI in the assay on OVCAR-5 ovarian was over 100 µM; with HCT-15 colon it was over 100 µM; in the assay on HOP-62 NSCLC, 68.6 µM; in the assay on MOLT-4 leukemia, over 100 µM; in the assay with T-47D breast, 5.84 µM; in the assay on TK-10 renal, over 100 µM. Besides, the TGI in the assay with K-562 leukemia was over 100 µM; with HCT-116 colon it was 18.8 µM; in the assay with CAKI-1 renal, 9.72 µM.
As to `O=C(Nc1ccccc1)c1cc(S(=O)(=O)Nc2n[nH]c(=O)[nH]2)c(SSc2cc(Cl)c(C(=O)Nc3ccccc3)cc2S(=O)(=O)Nc2n[nH]c(=O)[nH]2)cc1Cl`, the TGI with OVCAR-5 ovarian, in the assay on HCT-15 colon, with HOP-62 NSCLC, with MOLT-4 leukemia, in the assay on HL-60(TB) leukemia and in the assay on TK-10 renal was over 100 µM throughout. The TGI in the assay on K-562 leukemia, in the assay with HCT-116 colon and in the assay with CAKI-1 renal was over 100 µM in each case.
For `CC(C)(C)OC(=O)NC1CCCC1C(O)(C1=CCCC1)C1=CCCC1` (centres undefined), the TGI in the assay with OVCAR-5 ovarian, in the assay on HCT-15 colon, with HOP-62 NSCLC, with MOLT-4 leukemia, in the assay with HL-60(TB) leukemia and in the assay on T-47D breast was over 100 µM each time. This compound showed a TGI in the assay on HCT-116 colon of over 100 µM.
Consider `CC1(C)C2CCC1(C)C(N/C(=C(/C(Cl)=C(Cl)Cl)[N+](=O)[O-])n1nnc3ccccc31)C2` (centres undefined), for which the TGI was over 100 µM with OVCAR-5 ovarian; 93.4 µM in the assay on HCT-15 colon; 67 µM with HOP-62 NSCLC; over 100 µM with T-47D breast; over 100 µM in the assay on HCT-116 colon; 37 µM in the assay with CAKI-1 renal.
In the case of `CCC(C)NC(=S)N/N=C(\C)c1ccccn1` (centres undefined), the TGI in the assay with OVCAR-5 ovarian is over 100 µM; with HCT-15 colon, over 100 µM; with HOP-62 NSCLC it was over 25.8 µM; with MOLT-4 leukemia, 0.14 µM; in the assay on T-47D breast, 41.7 µM; with TK-10 renal it was over 100 µM. Further, the TGI with HCT-116 colon and in the assay with CAKI-1 renal was over 100 µM throughout.
